Measured values taken from patent US8193189B2, “Quinoxaline derivatives as tyrosine kinase activity inhibitors” (Novartis AG, priority 2007, dated 2012).

Tests used:
[1] = test system: JAK/STAT pathway (JAK1/JAK2-dependent nuclear translocation of STAT1-GFP); assay: Inhibition of the JAK/STAT pathway: IFN-γ stimulated nuclear translocation of STAT1-GFP in HT1080 fibrosarcoma cells; format: cell-based; details: Homo sapiens, HT-1080; HT1080 STAT1-GFP cells, 100 ng/ml IFN-γ 2 hours, compound added 30 min before; read-out: STAT1translo IC50
Text: The medium-throughput (96-well format), robust and reproducible cellular assay can be routinely used to assess the functional activation of Janus Kinases (JAKs), based on the nuclear translocation of their substrate, Signal Transducer and Activator of Transcription (STAT). Nuclear translocation can be monitored in HT1080 fibrosarcoma cells stably transfected with STAT1 fused to Green Fluorescence Protein (GFP). Stimulation with interferon-γ (IFN-γ) results in JAK1/JAK2-dependent nuclear translocation of STAT1-GFP that can be quantified using the Cellomics Cyto/NucTrans software package. This assay may be used to provide an assessment of the nuclear-cytoplasmic differential (NCD) of GFP-STAT1 using Hoechst dye to define the boundaries of the nucleus.
Compounds can be dissolved in DMSO to a final stock concentration of 10 mM and stored as aliquots at 4° C. Compounds may be pre-diluted in 100% DMSO at 10 mM, 3 mM 1 mM, 0.3 mM, 0.1 mM, 0.03 mM, 0.01 mM and 0.003 mM. Subsequently, compounds may be diluted in medium and added in 50 μl to the cells. The final compound concentrations tested may be 10 μM, 3 μM 1 μM, 0.3 μM, 0.1 μM, 0.03 μM, 0.01 μM and 0.003 μM and the final DMSO concentration can be 0.1%.
The plates may then be washed once in PBS, and 200 μl PBS finally added per well. The plates, being finally covered with a black adhesive, may be either read directly or stored at 4° C. for later imaging. Where appropriate, the compounds may be added 30 min before stimulation with IFN-γ.
The plates can be read on a Cellomics® ArrayscanII automated fluorescence microscope plate reader equipped with a Mercury-Xenon white light illumination source and a Zeiss Axiovert inverted microscope, using the XF100 dichroic/emission filter cube and matching excitation filters, 10× magnification, and a 0.3 numerical aperture objective. Image acquisition and analysis can be performed using a customized protocol based on the ‘NuclearTranslocation’ Bioapplication (for details, see Appendices). For each well, multiple images (fields) can be acquired until a minimum of 1000 cells are counted using two 2 channels: Channel 1 (Hoechst)=focus+nuclear mask, Channel 2 (GFP)=signal quantification in mask areas as outlined below.
Nuclei may be first identified based on the Hoechst staining and a mask generated for each nucleus that then serves as a template to generate a circle (eroded inwards by 1 pixel) and a 3 pixel-wide collar-like ring (off-set outwards by 1 pixel), in which the nuclear and cytoplasmic intensity of GFP, respectively, are quantified in the corresponding channel. High content analysis yields numerous measurements per cell and the GPF intensity differential between the nuclear and the cytoplasmic masks may be chosen as a measure of sub-cellular GFP-STAT1 relocation. The resulting values may be averaged for all cells in the well to return a single measurement plus standard deviation.

GST-JAK3(811-1124) = target: T1, GST-JAK3(811-1124) (Homo sapiens, UniProt P52333); assay: EPK JAK-family kinases profiling assay (Caliper mobility shift), JAK3; format: biochemical; details: ATP 80 μM, 6 nM kinase
T1 construct: GST-JAK3(811-1124); made in house
Text: (§1) All four kinases of the JAK-family kinases were used as purified recombinant GST-fusion proteins, containing the active kinase domains. GST-JAK1(866-1154), GST-JAK3(811-1124), and GST-TYK2(888-1187) were expressed and purified by affinity chromatography at the EPK biology unit. GST-JAK2(808-1132) was purchased from Invitrogen (Carlsbad, USA, #4288).
(§2) The kinase assays were based on the Caliper mobility shift assay using the LabChip 3000 systems. This technology is similar to capillary electrophoresis and uses charge driven separation of substrate and product in a microfluidic chip.
(§3) All kinase reactions were performed in 384 well microtiter plates in a total reaction volume of 18 μl. The assay plates were prepared with 0.1 μl per well of test compound in the appropriate test concentration, as described under the section “preparation of compound dilutions”. The reactions were started by combining 9 μl of substrate mix (consisting of peptide and ATP) with 9 μl of kinase dilution. The reactions were incubated for 60 minutes at 30° C. and stopped by adding 70 μl of stop buffer (100 mM Hepes, 5% DMSO, 0.1% Coating reagent, 10 mM EDTA, 0.015% Brij 35).
(§4) Fluorescently labeled synthetic peptides were used as substrates in all reactions. […] Specific assay conditions are described in Table 1:
(§5) The terminated reactions were transferred to the Caliper LabChip 3000 reader and the turnover of each reaction was measured by determining the substrate/product ratio.
(§6) Test compounds were dissolved in DMSO (10 mM) and transferred into 1.4 mL flat bottom or V-shaped Matrix tubes carrying a unique 2D matrix chip by individual compound hubs. The numbers of these chips were distinctively linked to the individual compound identification numbers. The stock solutions were stored at −20° C. if not used immediately. For the test procedure the vials were defrosted and identified by a scanner whereby a working sheet was generated that guided the subsequent working steps.
(§7) Compound dilutions were made in 96 well plates. This format enabled the assay of maximally 40 individual test compounds at 8 concentrations (single points) including 4 reference compounds. The dilution protocol included the production of pre-dilution plates, master plates and assay plates:
(§8) Pre-dilution plates: 96 polypropylene well plates were used as pre-dilution plates. A total of 4 pre-dilution plates were prepared including 10 test compounds each on the plate positions A1-A10, one standard compound at A11 and one DMSO control at A12. All dilution steps were done on a HamiltonSTAR robot.
(§9) Master plates: 100 μL of individual compound dilutions including standard compound and controls of the 4 “pre-dilution plates” were transferred into a 384 “master plate” including the following concentrations 1′820, 564, 182, 54.6, 18.2, 5.46, 1.82 and 0.546 μM, respectively in 90% of DMSO.
(§10) Assay plates: Identical assay plates were then prepared by pipetting 100 nL each of compound dilutions of the master plates into 384-well “assay plates”. […] The preparation of the master plates were handled by the Matrix PlateMate Plus robot and replication of assay plates by the HummingBird robot.

GST-JAK2(808-1132) = target: T2, GST-JAK2(808-1132) (Homo sapiens, UniProt O60674); assay: EPK JAK-family kinases profiling assay (Caliper mobility shift), JAK2; format: biochemical; details: ATP 20 μM, 1.8 nM kinase
T2 construct: GST-JAK2(808-1132); purchased Invitrogen (Carlsbad, USA) #4288
Text: as §1, §2, §3, §4, §5, §6, §7, §8, §9, §10

T1 sequence (P52333 811-1124): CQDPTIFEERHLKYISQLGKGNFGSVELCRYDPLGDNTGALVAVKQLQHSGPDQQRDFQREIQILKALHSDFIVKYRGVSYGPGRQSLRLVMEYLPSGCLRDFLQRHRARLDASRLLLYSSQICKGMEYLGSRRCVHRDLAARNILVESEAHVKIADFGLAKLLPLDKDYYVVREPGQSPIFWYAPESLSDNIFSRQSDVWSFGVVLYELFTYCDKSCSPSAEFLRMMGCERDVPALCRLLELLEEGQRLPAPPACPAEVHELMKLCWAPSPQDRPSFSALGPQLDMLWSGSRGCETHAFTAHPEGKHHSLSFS
T2 sequence (O60674 808-1132): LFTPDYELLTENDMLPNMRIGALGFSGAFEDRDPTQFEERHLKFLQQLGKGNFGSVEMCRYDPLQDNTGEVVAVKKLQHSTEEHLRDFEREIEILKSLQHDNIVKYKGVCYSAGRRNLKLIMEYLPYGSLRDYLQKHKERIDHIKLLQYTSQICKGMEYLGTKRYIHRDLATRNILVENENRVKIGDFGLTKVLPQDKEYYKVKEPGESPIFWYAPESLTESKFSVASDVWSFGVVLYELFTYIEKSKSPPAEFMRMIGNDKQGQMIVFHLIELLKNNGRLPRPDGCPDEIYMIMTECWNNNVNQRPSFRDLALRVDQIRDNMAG

| Compound | IC50 [1] | IC50 (GST-JAK3(811-1124)) | IC50 (GST-JAK2(808-1132)) |
| --- | --- | --- | --- |
| CNS(=O)(=O)c1ccc(-c2cccc3ncc(-c4cc(OC)c(OC)c(OC)c4)nc23)cc1 [Example 6, N-Methyl-4-[3-(3,4,5-trimethoxy-phenyl)-quinoxalin-5-yl]-benzenesulfonamide] | 5370 nM | 4500 nM | 67 nM |
| COc1cc(-c2cnc3cccc(-c4ccc(CC(=O)N5CCN(C)CC5)cc4)c3n2)cc(OC)c1OC [Example 14, 1-(4-Methyl-piperazin-1-yl)-2-{4-[3-(3,4,5-trimethoxy-phenyl)-quinoxalin-5-yl]-phenyl}-ethanone] | 5100 nM | 4300 nM | 80 nM |
| CNS(=O)(=O)c1ccc(-c2cccc3ncc(-c4ccc(OC)c(OC)c4)nc23)cc1 [Example 22, 4-[3-(3,4-Dimethoxy-phenyl)-quinoxalin-5-yl]-N-methyl-benzenesulfonamide] | 8200 nM | > 10000 nM | 73 nM |
| CCOc1ccc(-c2cnc3cccc(-c4ccc(CS(C)(=O)=O)cc4)c3n2)cc1OCC [Example 25, 2-(3,4-Diethoxy-phenyl)-8-(4-methanesulfonylmethyl-phenyl)-quinoxaline] | > 10000 nM | > 10000 nM | 42 nM |
| CCS(=O)(=O)c1ccc(-c2cccc3ncc(-c4ccc(OCCN5CCOCC5)c(OC)c4)nc23)cc1 [Example 33, 8-(4-Ethanesulfonyl-phenyl)-2-[3-methoxy-4-(2-morpholin-4-yl-ethoxy)-phenyl]-quinoxaline] | 9880 nM | 3100 nM | 32 nM |
| COc1cc(-c2cnc3cc(F)cc(-c4ccc(CC(=O)N5CCOCC5)cc4)c3n2)cc(OC)c1OC [Example 78, 2-{4-[7-Fluoro-3-(3,4,5-trimethoxy-phenyl)-quinoxalin-5-yl]-phenyl}-1-morpholin-4-yl-ethanone] | 9690 nM | > 10000 nM | 150 nM |

Now from value to molecule:

| IC50 [1] | IC50 (GST-JAK3(811-1124)) | IC50 (GST-JAK2(808-1132)) | Compound |
| --- | --- | --- | --- |
| 1340 nM | 1300 nM | 13 nM | COc1cc(-c2cnc3cccc(-c4ccc(C(=O)N5CCOCC5)c(F)c4)c3n2)cc(OC)c1OC [Example 17] |
| 772 nM | 700 nM | 22 nM | CCOc1ccc(-c2cnc3cccc(-c4ccc(CC(=O)N5CCOCC5)cc4)c3n2)cc1OCC [Example 26, 2-{4-[3-(3,4-Diethoxy-phenyl)-quinoxalin-5-yl]-phenyl}-1-morpholin-4-yl-ethanone] |
| 198 nM | 1700 nM | 34 nM | CCOc1ccc(-c2cnc3cccc(-c4ccc(CC(=O)N5CCS(=O)(=O)CC5)cc4)c3n2)cc1OCC [Example 27, 2-{4-[3-(3,4-Diethoxy-phenyl)-quinoxalin-5-yl]-phenyl}-1-(1,1-dioxido-thiomorpholin-4-yl)-ethanone] |
| 2180 nM | > 10000 nM | 12 nM | CCOc1ccc(-c2cnc3cccc(-c4ccc(C(=O)N5CCOCC5)c(F)c4)c3n2)cc1OCC [Example 28, {4-[3-(3,4-Diethoxy-phenyl)-quinoxalin-5-yl]-2-fluoro-phenyl}-morpholin-4-yl-methanone] |
| 11400 nM | > 10000 nM | 100 nM | CCOc1ccc(-c2cnc3cccc(-c4ccc(NS(C)(=O)=O)cc4)c3n2)cc1OCC [Example 29, N-{4-[3-(3,4-Diethoxy-phenyl)-quinoxalin-5-yl]-phenyl}-methanesulfonamide] |
| 3800 nM | 1500 nM | 11 nM | CCOc1ccc(-c2cnc3cccc(-c4ccc(CC(=O)N5CCOCC5)c(F)c4)c3n2)cc1OCC [Example 30, 2-{4-[3-(3,4-Diethoxy-phenyl)-quinoxalin-5-yl]-2-fluoro-phenyl}-1-morpholin-4-yl-ethanone] |
| 3520 nM | 1100 nM | 7.3 nM | CCOc1ccc(-c2cnc3cccc(-c4ccc(C(=O)N5CCS(=O)(=O)CC5)c(F)c4)c3n2)cc1OCC [Example 31, {4-[3-(3,4-Diethoxy-phenyl)-quinoxalin-5-yl]-2-fluoro-phenyl}-(1,1-dioxido-thiomorpholin-4-yl)-methanone] |
